# Non-standard residues stand in square brackets, D forms with d. No end group written: not given here. *: point of attachment. Biotin = O=C1N[C@H]2[C@H](CS[C@H]2CCCCC(=O)*)N1; Cit = NC(=O)NCCC[C@H](N)C(=O)O
# System: IgG ACPAs
# Assay: ACPA ELISA with anti-human IgG secondary antibody
# Format: binding
# Conditions: not given
# Procedure: The synthetic citrullnated peptides set forth in Example 6, which were designed from synovial proteins, were synthesized and evaluated for their ability to diagnose and/or prognose RA. […] The peptides were then tested for IgG ACPA dose-response in samples of synovial fluid taken from both healthy patients and patients with RA.
row,Substance,sensitivity for autoantibodies of the IgG class (in words)
1,Biotin-GGGP[Cit]VVE[Cit]HQSAGGGTK[Cit]GHAKSRPV[Cit]GIHT [[Arg^25]Cit-α32],particularly high sensitivity

# Same assay, conditions: Example 7, FIGS. 20-27
row,Substance,IgG ACPA positive response (strong/moderate)
1,"H2B-3: synthetic citrullinated peptide derived from histone (H2B), Table 8 (Biotin-SRLAHYNK[Cit]STITSREIQTAV[Cit]LG-NH2; SMILES CC[C@H](C)[C@H](NC(=O)[C@H](CCC(=O)O)NC(=O)[C@H](CCCNC(=N)N)NC(=O)[C@H](CO)NC(=O)[C@@H](NC(=O)[C@@H](NC(=O)[C@@H](NC(=O)[C@H](CO)NC(=O)[C@H](CCCNC(N)=O)NC(=O)[C@H](CCCCN)NC(=O)[C@H](CC(N)=O)NC(=O)[C@H](Cc1ccc(O)cc1)NC(=O)[C@H](Cc1c[nH]cn1)NC(=O)[C@H](C)NC(=O)[C@H](CC(C)C)NC(=O)[C@H](CCCNC(=N)N)NC(=O)[C@H](CO)NC(=O)CCCC[C@@H]1SC[C@@H]2NC(=O)N[C@@H]21)[C@@H](C)O)[C@@H](C)CC)[C@@H](C)O)C(=O)N[C@@H](CCC(N)=O)C(=O)N[C@H](C(=O)N[C@@H](C)C(=O)N[C@H](C(=O)N[C@@H](CCCNC(N)=O)C(=O)N[C@@H](CC(C)C)C(=O)NCC(N)=O)C(C)C)[C@@H](C)O)",strong
2,"FIB-G1: synthetic citrullinated peptide derived from fibrin (gamma-chain), Table 8 (Biotin-GYVAT[Cit]DNSSILDE[Cit]FGSRILTHDSSI[Cit]YR-NH2; SMILES CC[C@H](C)[C@H](NC(=O)[C@H](CO)NC(=O)[C@H](CO)NC(=O)[C@H](CC(=O)O)NC(=O)[C@H](Cc1c[nH]cn1)NC(=O)[C@@H](NC(=O)[C@H](CC(C)C)NC(=O)[C@@H](NC(=O)[C@H](CCCNC(=N)N)NC(=O)[C@H](CO)NC(=O)CNC(=O)[C@H](Cc1ccccc1)NC(=O)[C@H](CCCNC(N)=O)NC(=O)[C@H](CCC(=O)O)NC(=O)[C@H](CC(=O)O)NC(=O)[C@H](CC(C)C)NC(=O)[C@@H](NC(=O)[C@H](CO)NC(=O)[C@H](CO)NC(=O)[C@H](CC(N)=O)NC(=O)[C@H](CC(=O)O)NC(=O)[C@H](CCCNC(N)=O)NC(=O)[C@@H](NC(=O)[C@H](C)NC(=O)[C@@H](NC(=O)[C@H](Cc1ccc(O)cc1)NC(=O)CNC(=O)CCCC[C@@H]1SC[C@@H]2NC(=O)N[C@@H]21)C(C)C)[C@@H](C)O)[C@@H](C)CC)[C@@H](C)CC)[C@@H](C)O)C(=O)N[C@@H](CCCNC(N)=O)C(=O)N[C@@H](Cc1ccc(O)cc1)C(=O)N[C@@H](CCCNC(=N)N)C(N)=O)",strong
3,"FBNT-5: synthetic citrullinated peptide derived from fibronectin, Table 8 (Biotin-RGVLTVSWE[Cit]STTPDITGY[Cit]ITTTPTNR-NH2; SMILES CC[C@H](C)[C@H](NC(=O)[C@H](CC(=O)O)NC(=O)[C@@H]1CCCN1C(=O)[C@@H](NC(=O)[C@@H](NC(=O)[C@H](CO)NC(=O)[C@H](CCCNC(N)=O)NC(=O)[C@H](CCC(=O)O)NC(=O)[C@H](Cc1c[nH]c2ccccc12)NC(=O)[C@H](CO)NC(=O)[C@@H](NC(=O)[C@@H](NC(=O)[C@H](CC(C)C)NC(=O)[C@@H](NC(=O)CNC(=O)[C@H](CCCNC(=N)N)NC(=O)CCCC[C@@H]1SC[C@@H]2NC(=O)N[C@@H]21)C(C)C)[C@@H](C)O)C(C)C)[C@@H](C)O)[C@@H](C)O)C(=O)N[C@H](C(=O)NCC(=O)N[C@@H](Cc1ccc(O)cc1)C(=O)N[C@@H](CCCNC(N)=O)C(=O)N[C@H](C(=O)N[C@H](C(=O)N[C@H](C(=O)N[C@H](C(=O)N1CCC[C@H]1C(=O)N[C@H](C(=O)N[C@@H](CC(N)=O)C(=O)N[C@@H](CCCNC(=N)N)C(N)=O)[C@@H](C)O)[C@@H](C)O)[C@@H](C)O)[C@@H](C)O)[C@@H](C)CC)[C@@H](C)O)",moderate
4,"H3-2: synthetic citrullinated peptide derived from histone (H3), Table 8 (Biotin-DFKTDL[Cit]FQSSAVMARRIRGE[Cit]AG-NH2; SMILES CC[C@H](C)[C@H](NC(=O)[C@H](CCCNC(=N)N)NC(=O)[C@H](CCCNC(=N)N)NC(=O)[C@H](C)NC(=O)[C@H](CCSC)NC(=O)[C@@H](NC(=O)[C@H](C)NC(=O)[C@H](CO)NC(=O)[C@H](CO)NC(=O)[C@H](CCC(N)=O)NC(=O)[C@H](Cc1ccccc1)NC(=O)[C@H](CCCNC(N)=O)NC(=O)[C@H](CC(C)C)NC(=O)[C@H](CC(=O)O)NC(=O)[C@@H](NC(=O)[C@H](CCCCN)NC(=O)[C@H](Cc1ccccc1)NC(=O)[C@H](CC(=O)O)NC(=O)CCCC[C@@H]1SC[C@@H]2NC(=O)N[C@@H]21)[C@@H](C)O)C(C)C)C(=O)N[C@@H](CCCNC(=N)N)C(=O)NCC(=O)N[C@@H](CCC(=O)O)C(=O)N[C@@H](CCCNC(N)=O)C(=O)N[C@@H](C)C(=O)NCC(N)=O)",moderate
5,"Bip-2: synthetic citrullinated peptide derived from BiP, Table 8 (Biotin-DVRKDN[Cit]AVQKLR[Cit]EVEKAK[Cit]ALSSQHQ-NH2; SMILES CC(C)C[C@H](NC(=O)[C@H](C)NC(=O)[C@H](CCCNC(N)=O)NC(=O)[C@H](CCCCN)NC(=O)[C@H](C)NC(=O)[C@H](CCCCN)NC(=O)[C@H](CCC(=O)O)NC(=O)[C@@H](NC(=O)[C@H](CCC(=O)O)NC(=O)[C@H](CCCNC(N)=O)NC(=O)[C@H](CCCNC(=N)N)NC(=O)[C@H](CC(C)C)NC(=O)[C@H](CCCCN)NC(=O)[C@H](CCC(N)=O)NC(=O)[C@@H](NC(=O)[C@H](C)NC(=O)[C@H](CCCNC(N)=O)NC(=O)[C@H](CC(N)=O)NC(=O)[C@H](CC(=O)O)NC(=O)[C@H](CCCCN)NC(=O)[C@H](CCCNC(=N)N)NC(=O)[C@@H](NC(=O)[C@H](CC(=O)O)NC(=O)CCCC[C@@H]1SC[C@@H]2NC(=O)N[C@@H]21)C(C)C)C(C)C)C(C)C)C(=O)N[C@@H](CO)C(=O)N[C@@H](CO)C(=O)N[C@@H](CCC(N)=O)C(=O)N[C@@H](Cc1c[nH]cn1)C(=O)N[C@@H](CCC(N)=O)C(N)=O)",moderate
6,"Apo a-6: synthetic citrullinated peptide derived from Apolipoprotein a, Table 8 (Biotin-HWHR[Cit]IPLYYPNAGLT[Cit]AGLTRNYS[Cit]N-NH2; SMILES CC[C@H](C)[C@H](NC(=O)[C@H](CCCNC(N)=O)NC(=O)[C@H](CCCNC(=N)N)NC(=O)[C@H](Cc1c[nH]cn1)NC(=O)[C@H](Cc1c[nH]c2ccccc12)NC(=O)[C@H](Cc1c[nH]cn1)NC(=O)CCCC[C@@H]1SC[C@@H]2NC(=O)N[C@@H]21)C(=O)N1CCC[C@H]1C(=O)N[C@@H](CC(C)C)C(=O)N[C@@H](Cc1ccc(O)cc1)C(=O)N[C@@H](Cc1ccc(O)cc1)C(=O)N1CCC[C@H]1C(=O)N[C@@H](CC(N)=O)C(=O)N[C@@H](C)C(=O)NCC(=O)N[C@@H](CC(C)C)C(=O)N[C@H](C(=O)N[C@@H](CCCNC(N)=O)C(=O)N[C@@H](C)C(=O)NCC(=O)N[C@@H](CC(C)C)C(=O)N[C@H](C(=O)N[C@@H](CCCNC(=N)N)C(=O)N[C@@H](CC(N)=O)C(=O)N[C@@H](Cc1ccc(O)cc1)C(=O)N[C@@H](CO)C(=O)N[C@@H](CCCNC(N)=O)C(=O)N[C@@H](CC(N)=O)C(N)=O)[C@@H](C)O)[C@@H](C)O)",strong
7,"T11α2-4: synthetic citrullinated peptide derived from collagen (Coll.T11α2), Table 8 (Biotin-GH[Cit]AQRSPQQQPS[Cit]LHRPQNQE-NH2; SMILES CC(C)C[C@H](NC(=O)[C@H](CCCNC(N)=O)NC(=O)[C@H](CO)NC(=O)[C@@H]1CCCN1C(=O)[C@H](CCC(N)=O)NC(=O)[C@H](CCC(N)=O)NC(=O)[C@H](CCC(N)=O)NC(=O)[C@@H]1CCCN1C(=O)[C@H](CO)NC(=O)[C@H](CCCNC(=N)N)NC(=O)[C@H](CCC(N)=O)NC(=O)[C@H](C)NC(=O)[C@H](CCCNC(N)=O)NC(=O)[C@H](Cc1c[nH]cn1)NC(=O)CNC(=O)CCCC[C@@H]1SC[C@@H]2NC(=O)N[C@@H]21)C(=O)N[C@@H](Cc1c[nH]cn1)C(=O)N[C@@H](CCCNC(=N)N)C(=O)N1CCC[C@H]1C(=O)N[C@@H](CCC(N)=O)C(=O)N[C@@H](CC(N)=O)C(=O)N[C@@H](CCC(N)=O)C(=O)N[C@@H](CCC(=O)O)C(N)=O)",moderate
8,"MLBS-1: synthetic citrullinated peptide derived from myeloblastin, Table 8 (Biotin-HS[Cit]PYMASLQM[Cit]GNPGSH-NH2; SMILES CSCC[C@H](NC(=O)[C@H](Cc1ccc(O)cc1)NC(=O)[C@@H]1CCCN1C(=O)[C@H](CCCNC(N)=O)NC(=O)[C@H](CO)NC(=O)[C@H](Cc1c[nH]cn1)NC(=O)CCCC[C@@H]1SC[C@@H]2NC(=O)N[C@@H]21)C(=O)N[C@@H](C)C(=O)N[C@@H](CO)C(=O)N[C@@H](CC(C)C)C(=O)N[C@@H](CCC(N)=O)C(=O)N[C@@H](CCSC)C(=O)N[C@@H](CCCNC(N)=O)C(=O)NCC(=O)N[C@@H](CC(N)=O)C(=O)N1CCC[C@H]1C(=O)NCC(=O)N[C@@H](CO)C(=O)N[C@@H](Cc1c[nH]cn1)C(N)=O)",moderate
9,"Bip-3: synthetic citrullinated peptide derived from BiP, Table 8 (Biotin-GEDFSETLT[Cit]DLF[Cit]STMKPIVLVGGST[Cit]R-NH2; SMILES CC[C@H](C)[C@H](NC(=O)[C@@H]1CCCN1C(=O)[C@H](CCCCN)NC(=O)[C@H](CCSC)NC(=O)[C@@H](NC(=O)[C@H](CO)NC(=O)[C@H](CCCNC(N)=O)NC(=O)[C@H](Cc1ccccc1)NC(=O)[C@H](CC(C)C)NC(=O)[C@H](CC(=O)O)NC(=O)[C@H](CCCNC(N)=O)NC(=O)[C@@H](NC(=O)[C@H](CC(C)C)NC(=O)[C@@H](NC(=O)[C@H](CCC(=O)O)NC(=O)[C@H](CO)NC(=O)[C@H](Cc1ccccc1)NC(=O)[C@H](CC(=O)O)NC(=O)[C@H](CCC(=O)O)NC(=O)CNC(=O)CCCC[C@@H]1SC[C@@H]2NC(=O)N[C@@H]21)[C@@H](C)O)[C@@H](C)O)[C@@H](C)O)C(=O)N[C@H](C(=O)N[C@@H](CC(C)C)C(=O)N[C@H](C(=O)NCC(=O)NCC(=O)N[C@@H](CO)C(=O)N[C@H](C(=O)N[C@@H](CCCNC(N)=O)C(=O)N[C@@H](CCCNC(=N)N)C(N)=O)[C@@H](C)O)C(C)C)C(C)C)",moderate

# Same assay, conditions: FIG. 4; IgG ACPAs
row,Substance,EC50 of the INOVA CCP IgG assay relative to EC50 of the peptide assay
1,Biotin-GGGP[Cit]VVE[Cit]HQSAGGGTK[Cit]GHAKSRPV[Cit]GIHT [[Arg^25]Cit-α32],143 fold

# From patent US8519096B2, “Citrullinated peptides for diagnosing and prognosing rheumatoid arthritis” (Nestec S.A., priority 2009, dated 2013)
